Here are results for two compounds from patent publication US11833144B2, “Treating autoimmune disease” (Mayo Foundation for Medical Education and Research, priority 2020, dated 2023).

Molecules are shown by their SMILES.

The test system of one assay is activated human B cells. The assay is described as follows: Seahorse OCR / ECAR in activated human B cells. Type of assay: cell-based. The method, then:
The bioenergetic activities of the OCR and ECAR were measured using a Seahorse XFe96 Extracellular Flux Analyzed following established protocols (Agilent). Briefly, B cells were seeded at 200,000 cells/well on Cell-Tak (Corning) coated XFe96 plate with fresh XF media (Seahorse XF RPMI medium containing 10 mM glucose, 2 mM L-glutamine, and 1 mM sodium pyruvate, PH 7.4; all reagents from Agilent). OCR was measured in the presence of Oligomycin (1.5 μM; Sigma-Aldrich), FCCP (1.5 μM; Sigma-Aldrich), and Rotenone (1 μM; Sigma-Aldrich)/Antimycin A (1 μM; Sigma-Aldrich) in Mito Stress assay. For ECAR measurement, B cells were seeded in XFe96 plate with fresh Seahorse XF RPMI medium with 2 mM L-glutamine (PH 7.4), and treated with glucose (10 mM; Agilent), Oligomycin (1.5 and 2-DG (50 mM; Sigma-Aldrich) orderly in Glycolysis Stress assay.

The test system of assay [1] is SCD. The assay is described as follows: Fatty acid composition of fresh and activated B cells by LC-MS/MS. Type of assay: cell-based, mouse. The settings on record: 100 nM SSI-4, 48 hours.
In assay [2] the test system is SCD. The assay is described as follows: 13C-glucose tracing of de novo fatty acid biosynthesis in activated B cells (NEFA isotopomer analysis). Type of assay: cell-based, mouse. The settings on record: 48 hours. The method, then: Briefly, 5×10^6 activated B cells were washed with PBS and re-cultured in glucose-free medium RPMI medium containing 10% dialyzed FBS and uniformly labeled [^13C]-glucose (2 g/L; Sigma-Aldrich) for 24 and 48 hours. Cell pellets were lysed in 1×PBS prior to lipid extraction. The extract was dried down and brought up in running buffer before underwent analysis on an Agilent 6550 iFunnel Q-TOF mass spectrometer/1290 Infinity liquid chromatographic system. A mixed standard containing 14 fatty acids was also run at the beginning and at the end of the sequence to generate retention time lock as well as unlabeled mass spectrum for each fatty acid. The mass spec was operating in negative electrospray ionization. Data was acquired in scan mode from 50-1700 m/z range. Data analysis was performed on Agilent Technologies software including Profinder, Mass Profiler Professional (MPP) and Vista Flux. Briefly, the features extracted from the data files were aligned using Profinder and converted to a compound exchange file (CEF) format to import in the MPP. The list was filtered for frequency and abundance to identify features that are present in all samples and with high abundance. A library was created using mass, molecular formula, and retention time of these features and used in conjunction with the Vista Flux software to determine the presence of isotopologue in individual feature. […]

The test system of a further assay is GFP-LC3. The assay is described as follows: Flow cytometry of GFP-LC3 in activated B cells from GFP-LC3 reporter mouse. Type of assay: cell-based. The settings on record: SSI-4 ex vivo. The protocol: For analysis of surface markers, cells were stained in PBS containing 1% (w/v) bovine serum albumin on ice for 30 minutes, with anti-IgG1 (RMG1-1, Biolegend), anti-CD19 (ID3, Biolegend) anti-B220 (RA3-6B2, Biolegend), anti-CD4 (GK1.5, Biolegend), anti-CD8 (53-6.7, Biolegend), anti-CD25 (PC16, Biolegend), anti-GL7 (GL-7, Biolegend), anti-CD95 (Jo2, BD Biosciences), anti-CD138 (281-2, Biolegend), anti-IgD (11-26c.2a, Biolegend), anti-PD-1 (J43, ThermoFisher), anti-IgM (II/41, ThermoFisher). Antigen specific GC response was detected with tetramer NP-phycoerythrin conjugated with PE (Biosearch Technologies). CXCR5 was stained with biotinylated anti-CXCR5 (2G8) followed by staining with streptavidin-conjugated PE (both from BD Biosciences). Cell viability was assessed using the Fixable Dye Ghost 510 (Tonbo Bioscience) or Annexin V cell apoptosis kit with 7-AAD (ThermoFisher) following the manufacturer's protocol. Phosflow staining for phospho-S6 (S235/236) was performed using Phosflow Fix/Perm kit (BD Biosciences). Mitochondrial potential was measured by staining with 20 nM TMRM (ThermoFisher) following manufacturer's instructions. Flow cytometry was performed on the LSR II, LSR Fortessa (BD Biosciences) or Attune NxT (ThermoFisher) cytometers, and analysis was performed using FlowJo software (Tree Star).
On the technique in general: In flow cytometry, cells or beads pass a laser one at a time.

The test system of assay [3] is mice immunized with NP-OVA. The assay is described as follows: NP-OVA immunization of mice fed SSI-4 chow: humoral immune response. Type of assay: in vivo, mouse.
A further assay relates to MRL/MpJ-Faslpr mice. The assay is described as follows: MRL/MpJ-Faslpr lupus mouse model fed SSI-4 chow. Type of assay: in vivo. The method, then: MRL/MpJ-Fas^lpr mice and B6 (C)-H2-Ab1^bm12/KhEgJ (bm12) mice were purchased from the Jackson Laboratory. Six weeks old female MRL/MpJ-Fas^lpr mice were treated with control chow or SSI-4 chow (60 mg/kg, on a two-week SSI-4 chow/control-chow alternating schedule) ad libitum for 15 weeks. Proteinuria was measured using Albustix strips (Siemens). Kidney histology was done using routine H&E staining. Thirty million splenocytes from 8 weeks old B6 (C)-H2-Ab1^bm12/KhEgJ (bm12) mice were transferred into C57BL/6 mice intraperitoneally. Mice were fed with control chow or SSI-4 chow (30 mg/kg, on an one-week SSI-4 chow/control-chow alternating schedule) ad libitum for 8 weeks.
For analysis of surface markers, cells were stained in PBS containing 1% (w/v) bovine serum albumin on ice for 30 minutes, with anti-B220 (RA3-6B2, Biolegend), anti-CD4 (GK1.5, Biolegend), anti-CD138 (281-2, Biolegend), anti-PD-1 (J43, ThermoFisher). CXCR5 was stained with biotinylated anti-CXCR5 (2G8) followed by staining with streptavidin-conjugated PE (both from BD Biosciences). Cell viability was assessed using the Fixable Dye Ghost 510 (Tonbo Bioscience) following the manufacturer's protocol. Flow cytometry was performed on the LSR II, LSR Fortessa (BD Biosciences) or Attune NxT (ThermoFisher) cytometers, and analysis was performed using FlowJo software (Tree Star).

Turning to `CCCCCCCC/C=C\CCCCCCCC(=O)O` [OA, oleic acid], the “human B cell glycolysis (ECAR)” value in the assay on activated human B cells (exogenous OA, 72 h) is on record as “improved human B cell glycolysis”. In addition, the “respiration (OCR) in activated human B cells” value in the assay on activated human B cells (exogenous fatty acid, 72 hours) is recorded as “augmented respiration”.

On to `CNC(=O)c1ccnc(NC(=O)N2CCC(Oc3ccccc3Cl)CC2)c1` [SSI-4, 2-{[4-(2-Chlorophenoxy)piperidine-1-carbonyl]amino}-N-methylpyridine-4-carboxamide], for which, in the assay on SCD [1], the “accumulation of MUFAs (PO, OA) in activated B cells” value is given as “largely reversed it”. For the same compound, in the assay with SCD [2], the “13C incorporation from glucose in OA, PO and vaccenic acid” value was “all abolished”; the “13C incorporation from glucose into SA, PA and myristic acid” value is listed as “largely unaffected”. In the assay with GFP-LC3, the “GFP-LC3 expression (MFI)” value is given as “higher LC3 expression”. Moreover, in assay [3] (NP-OVA immunized, SSI-4 chow), the “B220intCD138+ plasmablast generation” value is given as “not affected”, the “antigen specific NP+ GC B cells” value is “reduced” and the “splenic GC formation” value was “significantly suppressed”. Moreover, the “OA level in sera of immunized mice” value in assay [3] (NP-OVA immunized, SSI-4 chow, GC-MS) is listed as “substantially reduced”. Besides, the “mTORC1 activity (p-S6 MFI) in splenic B cells in vivo” value in assay [3] (SSI-4 chow (30 mg/kg), NP-OVA immunization for one week) is on record as “suppressed mTORC1 activity”. In addition, the “percentage of Tfh cells after immunization” value in assay [3] (SSI-4 chow vs control chow) was “comparable”. Besides, in assay [3] (serum ELISA), the “production of anti-NP specific IgM antibodies” value is “but not IgM”; the “production of anti-NP specific total IgG and IgG1 antibodies” value is on record as “significantly reduced”. Also, the “kidney histology (H&E)” value in the assay with MRL/MpJ-Faslpr mice (SSI-4 chow 60 mg/kg, alternating schedule) is “reduced immune cell infiltration and inflammation”. Further, the proteinuria result in the assay with MRL/MpJ-Faslpr mice (SSI-4 chow 60 mg/kg, two-week alternating schedule, from 6 weeks old, measured from 8 weeks old) is “no increase of proteinuria”. Also, the “B cell proliferation measured by Ki-67 expression” value in the assay with MRL/MpJ-Faslpr mice (flow cytometry) is “significantly reduced”. The “B cell metabolic activity measured by expression of CD98” value in the assay on MRL/MpJ-Faslpr mice (flow cytometry MFI) was “significantly reduced”.
